Key:
[1] = system: murine retinal pigment epithelial cells; assay: Test on inhibition of three-dimensional collagen gel atrophy in murine retinal pigment epithelial cell; assay type: cell-based, mouse; details: 1 ng/ml TGF-B2; 0.01, 0.1 or 1 μM; gel diameter after 24 hours; FIG. 1
From the text: (Test on Inhibition of Three-Dimensional Collagen Gel Atrophy in Murine Retinal Pigment Epithelial Cell)
Murine retinal pigment epithelial cells were used to assess the inhibition effect of a tested compound on three-dimensional collagen gel atrophy in accordance with the method of Nishida et al (Investigative Ophthalmology & Visual Science 42: 1247-1253 (2001)). A subretinal sheet-like pigment epithelial cell comprising a retinal pigment epithelial cell from a mouse eyeball was collected and grown in primary culture. The cultured cell was detached and collected from a culture slide with 0.05% Trypsin-EDTA. After washing twice in a serum free medium (MEM: product number 11095; Gibco), a serum-free medium was added to make a cell suspension. Type I collagen (3 mg/ml: product number 637-00653; Nitta Gelatin Inc.), 10×MEM, reconstitution buffer (product number 635-00791; Nitta Gelatin Inc.), cell suspension (1.1×10^7 cells/ml in MEM), and water were mixed on ice at the volume ratio of 7:1:1:0.2:1.8. A culture dish coated with 1% BSA was inoculated with the mixture (0.5 ml), which was incubated for one hour at 37° C. to make a collagen gel. Then, 0.5 ml each of serum free media, to which 1 ng/ml of TGF-B2 (R&D) and 0, 0.01, 0.1, or 1 μM of the benzoic acid of the invention were added, was added onto collagen gels and incubated at 37° C. The diameter of gels was measured after 24 hours. […]

[2] = system: murine subretinal scar model; assay: Test on inhibition of murine subretinal scar formation; assay type: in vivo, mouse C57BL/6; details: 7 days after injection
From the text: (Test on Inhibition of Murine Subretinal Scar Formation)
A murine subretinal scar model was produced to study whether the benzoic acid of the invention has an effect of inhibiting subretinal scar formation. A subretinal scar model in a mouse was produced by the method shown below in accordance with the method of Young-joon et al (Investigative Ophthalmology & Visual Science, 52, 6089-6095([…])).
(Production of Murine Subretinal Scar Model)
First, laser was irradiated (0.05 seconds, 200 mW, 532 nm) onto one location on the posterior pole of fundus of mouse C57BL/6 (purchased from SLC) to destroy the Bruch's membrane, which enabled infiltration of inflammatory cells from the choroid as well as creation of air bubbles subretinally.
A 33G needle was then inserted from pars plana. 0.5 μl of 4×10^7 ml thioglycollate elicited peritoneal macrophage and 1 μg, 5 μg, or 50 μg of the benzoic acid of the invention were subretinally injected. For the control, the benzoic acid of the invention was not injected (0 μg).
The subretinal area was observed and subretinal scar region was measure 7 days after injection of the macrophage and the benzoic acid of the invention described above.

CC1(C)CCC(C)(C)c2cc(Cn3cccn3)c(/C=C/c3ccc(C(=O)O)cc3)cc21 [benzoic acid of the invention, (E)-4-(2-{3-[(1H-pyrazole-1-yl)methyl]-5,5,8,8-tetramethyl-5,6,7,8-tetrahydronaphthalene-2-yl}vinyl)benzoic acid]
collagen atrophy due to TGF (diameter of collagen gel) [1]: can inhibit collagen atrophy due to TGF | subretinal scar region (fibrillation region) ([2]; 1 μg, 5 μg or 50 μg subretinally injected with macrophages, FIG. 2B): narrows as the amount of injection of the benzoic acid of the invention increases | formation of a subretinal scar (subretinal observation) ([2]; 50 μg subretinally injected with macrophages, in comparison to the control, FIG. 2A): formation of a scar was inhibited
